What was measured:
Type in all cases: in vivo
[1] = test system: Pseudoperonospora cubensis; experiment: Cucumber Downy Mildew foliar spray test, inoculated one day after treatment; settings: applied to foliage at 200 ppm, cucumber plants, read-out: Activity against Fungal Diseases PSPECU (percent disease control)
Protocol: Fungicide activity data are the level (in percent) at which the given disease was controlled when the given compound was applied to the foliage of the plants at 200 ppm. In a few cases (noted in the table) the compound was applied to the plants at 25 ppm or 3 ppm. The plants were inoculated with the fungus one day after treatment. ***=80-100% control; **=50-79% control; *=0-49% control. […] The activity of the compounds as effective fungicides was determined by applying the compounds to plants and observing control of fungal disease. […] All plants were inoculated with spores of the fungus the day after treatment, then incubated in an environment conducive to disease development. Disease severity was evaluated 4 to 25 days (d) later, depending on the speed of disease development. The following experiments were performed in the laboratory to determine the fungicidal efficacy of the compounds of the invention. Cucumber Downy Mildew (causal agent Pseudoperonospora cubensis; Bayer code […]): Cucumber plants (variety 'Bush Champion' or 'Bush Pickle Hybrid') were grown from seed in a soil-less peat-based potting mixture (Metromix) until the first true leaf was 20-80% expanded. Each pot contained 1 seedling. These plants were sprayed until wet with the formulated test compound. On the following day, the leaves were inoculated with an aqueous suspension of downy mildew sporangia and the plants were kept in high humidity for one day to permit sporangia to germinate and infect the leaf. The plants were then incubated in a growth chamber until disease developed on untreated control plants. […] The effectiveness of the test compounds at controlling disease when sprayed on leaves was determined by assessing the severity of disease on treated plants, then converting the severity to percent control based on the level of disease on untreated, inoculated plants.

[2] = test system: Puccinia recondita tritici; experiment: Leaf Rust of Wheat foliar spray test, inoculated one day after treatment; settings: applied to foliage at 200 ppm, wheat plants, read-out: Activity against Fungal Diseases PUCCRT (percent disease control)
Protocol: (§1) Fungicide activity data are the level (in percent) at which the given disease was controlled when the given compound was applied to the foliage of the plants at 200 ppm. In a few cases (noted in the table) the compound was applied to the plants at 25 ppm or 3 ppm. The plants were inoculated with the fungus one day after treatment. ***=80-100% control; **=50-79% control; *=0-49% control. […] The activity of the compounds as effective fungicides was determined by applying the compounds to plants and observing control of fungal disease. […] All plants were inoculated with spores of the fungus the day after treatment, then incubated in an environment conducive to disease development. Disease severity was evaluated 4 to 25 days (d) later, depending on the speed of disease development. The following experiments were performed in the laboratory to determine the fungicidal efficacy of the compounds of the invention. […] Each pot contained 3-8 seedlings. These plants were sprayed until wet with the formulated test compounds. On the following day, the leaves were inoculated with an aqueous spore suspension of Puccinia recondita tritici and the plants were kept in high humidity overnight to permit spores to germinate and infect the leaf. The plants were then transferred to a greenhouse until disease developed on untreated control plants. […] The effectiveness of the test compounds at controlling disease when sprayed on leaves was determined by assessing the severity of disease on treated plants, then converting the severity to percent control based on the level of disease on untreated, inoculated plants.

Pyricularia oryzae = experiment: whole plant or invertebrate; settings: foliar, read-out: Activity against Fungal Diseases PYRIOR (percent disease control)
Septoria tritici = experiment: Septoria Blotch of Wheat foliar spray test, inoculated one day after treatment; settings: Zymoseptoria tritici, wheat plants, read-out: Activity against Fungal Diseases SEPTTR (percent disease control); for pest or weed control at 25 ppm: Tested at 25 ppm; for pest or weed control at 200 ppm: applied to foliage at 200 ppm
Protocol: as §1, with “3-10” for “3-8”, “compound.” for “compounds.”, “Septoria” for “Puccinia recondita”, “(one day in a dark dew chamber followed by two days in a lighted dew chamber)” for “overnight”

SMILES: Cc1cc(CCNc2ncnc3scnc23)ccc1Oc1cc(C(F)(F)F)ncn1 [Compound 53, {2-[3-methyl-4-(6-trifluoromethylpyrimidin-4-yloxy)-phenyl]-ethyl}-thiazolo[5,4-d]pyrimidin-7-ylamine]
- pest or weed control at 200 ppm [1]: 80 to 100%
- pest or weed control at 200 ppm [2]: 80 to 100%
- pest or weed control at 200 ppm (Pyricularia oryzae): 80 to 100%
- pest or weed control at 25 ppm (Septoria tritici): 80 to 100%

SMILES: CC(Nc1ncnc2scnc12)c1ccc(Oc2cc(C(F)(F)F)ccn2)cc1 (centres unmarked) [Compound 35, thiazolo[5,4-d]pyrimidin-7-yl-{1-[4-(4-trifluoromethylpyridin-2-yloxy)-phenyl]-ethyl}-amine]
- pest or weed control at 200 ppm [1]: 80 to 100%
- pest or weed control at 200 ppm [2]: 80 to 100%
- pest or weed control at 200 ppm (Pyricularia oryzae): 80 to 100%
- pest or weed control at 200 ppm (Septoria tritici): 80 to 100%

SMILES: Cc1cc(CCNc2ncnc3scnc23)ccc1Oc1nc(C(F)(F)F)c(Cl)s1 [Compound 46, {2-[4-(5-chloro-4-trifluoromethylthiazol-2-yloxy)-3-methylphenyl]-ethyl}-thiazolo[5,4-d]pyrimidin-7-ylamine]
- pest or weed control at 200 ppm [1]: 80 to 100%
- pest or weed control at 200 ppm [2]: 80 to 100%
- pest or weed control at 200 ppm (Pyricularia oryzae): 80 to 100%
- pest or weed control at 200 ppm (Septoria tritici): 80 to 100%

SMILES: c1ccc2c(c1)oc1ccc(CCNc3ncnc4scnc34)cc12 [Compound 44, (2-dibenzofuran-2-ylethyl)-thiazolo[5,4-d]pyrimidin-7-yl-amine]
- pest or weed control at 200 ppm [1]: 80 to 100%
- pest or weed control at 200 ppm [2]: 0 to 49%
- pest or weed control at 200 ppm (Pyricularia oryzae): 80 to 100%
- pest or weed control at 200 ppm (Septoria tritici): 50 to 79%

SMILES: Fc1cnc(C(F)(F)F)c(F)c1Oc1ccc(CCNc2ncnc3scnc23)cc1 [Compound 33, {2-[4-(3,5-difluoro-2-trifluoromethylpyridin-4-yloxy)-phenyl]-ethyl}-thiazolo[5,4-d]pyrimidin-7-ylamine]
- pest or weed control at 200 ppm [1]: 80 to 100%
- pest or weed control at 200 ppm [2]: 80 to 100%
- pest or weed control at 200 ppm (Pyricularia oryzae): 80 to 100%
- pest or weed control at 200 ppm (Septoria tritici): 80 to 100%

SMILES: Cc1cc(C(F)(F)F)cc(Oc2ccc(CCNc3ncnc4scnc34)cc2)n1 [Compound 62, {2-[4-(6-methyl-4-trifluoromethylpyridin-2-yloxy)-phenyl]-ethyl}-thiazolo[5,4-d]pyrimidin-7-ylamine]
- pest or weed control at 200 ppm [1]: 80 to 100%
- pest or weed control at 200 ppm [2]: 80 to 100%
- pest or weed control at 200 ppm (Pyricularia oryzae): 80 to 100%
- pest or weed control at 200 ppm (Septoria tritici): 80 to 100%

SMILES: FC(F)(F)c1cc(Oc2ccc(CCNc3ncnc4scnc34)cc2)ccn1 [Compound 40, thiazolo[5,4-d]pyrimidin-7-yl-{2-[4-(2-trifluoromethylpyridin-4-yloxy)-phenyl]-ethyl}-amine]
- pest or weed control at 200 ppm [1]: 80 to 100%
- pest or weed control at 200 ppm [2]: 80 to 100%
- pest or weed control at 200 ppm (Pyricularia oryzae): 80 to 100%
- pest or weed control at 200 ppm (Septoria tritici): 80 to 100%

SMILES: Cc1cc(CCNc2ncnc3scnc23)ccc1Oc1cc(C(F)(F)F)ccn1 [Compound 23, {2-[3-methyl-4-(4-trifluoromethylpyridin-2-yloxy)-phenyl]-ethyl}-thiazolo[5,4-d]pyrimidin-7-ylamine]
- pest or weed control at 200 ppm [1]: 80 to 100%
- pest or weed control at 200 ppm [2]: 80 to 100%
- pest or weed control at 200 ppm (Pyricularia oryzae): 80 to 100%
- pest or weed control at 200 ppm (Septoria tritici): 80 to 100%

SMILES: Cc1cc(CCNc2ncnc3scnc23)ccc1Oc1c(Cl)cnc(C(F)(F)F)c1Cl [Compound 49, {2-[4-(3,5-dichloro-2-trifluoromethylpyridin-4-yloxy)-3-methylphenyl]-ethyl}-thiazolo[5,4-d]pyrimidin-7-ylamine]
- pest or weed control at 200 ppm [1]: 50 to 79%
- pest or weed control at 200 ppm [2]: 50 to 79%
- pest or weed control at 200 ppm (Pyricularia oryzae): 80 to 100%
- pest or weed control at 25 ppm (Septoria tritici): 0 to 49%

SMILES: Fc1cnc(Oc2ccc(CCNc3ncnc4scnc34)cc2)c(F)c1C(F)(F)F [Compound 36, {2-[4-(3,5-difluoro-4-trifluoromethylpyridin-2-yloxy)-phenyl]-ethyl}-thiazolo[5,4-d]pyrimidin-7-ylamine]
- pest or weed control at 200 ppm [1]: 80 to 100%
- pest or weed control at 200 ppm [2]: 80 to 100%
- pest or weed control at 200 ppm (Pyricularia oryzae): 80 to 100%
- pest or weed control at 200 ppm (Septoria tritici): 80 to 100%

SMILES: FC(F)(F)c1cc(Oc2ccc(CCNc3ncnc4scnc34)cc2)ncn1 [Compound 52, thiazolo[5,4-d]pyrimidin-7-yl-{2-[4-(6-trifluoromethylpyrimidin-4-yloxy)-phenyl]-ethyl}-amine]
- pest or weed control at 200 ppm [1]: 80 to 100%
- pest or weed control at 200 ppm [2]: 80 to 100%
- pest or weed control at 200 ppm (Pyricularia oryzae): 80 to 100%
- pest or weed control at 25 ppm (Septoria tritici): 80 to 100%

SMILES: COC(=O)c1cnc(Oc2ccc(CCNc3ncnc4scnc34)cc2Br)cc1C(F)(F)F [Compound 27, 6-{2-bromo-4-[2-(thiazolo[5,4-d]pyrimidin-7-ylamino)-ethyl]-phenoxy}-4-trifluoromethyl-nicotinic acid methyl ester]
- pest or weed control at 200 ppm [1]: 80 to 100%
- pest or weed control at 200 ppm [2]: 80 to 100%
- pest or weed control at 200 ppm (Pyricularia oryzae): 80 to 100%
- pest or weed control at 200 ppm (Septoria tritici): 50 to 79%

SMILES: COC(=O)c1cnc(Oc2ccc(CCNc3ncnc4scnc34)cc2)cc1C(F)(F)F [Compound 16, 6-{4-[2-(thiazolo[5,4-d]pyrimidin-7-ylamino)-ethyl]-phenoxy}-4-trifluoromethyl-nicotinic acid methyl ester]
- pest or weed control at 200 ppm [1]: 80 to 100%
- pest or weed control at 200 ppm [2]: 80 to 100%
- pest or weed control at 200 ppm (Pyricularia oryzae): 50 to 79%
- pest or weed control at 200 ppm (Septoria tritici): 50 to 79%

SMILES: Cc1cc(Oc2cc(C(F)(F)F)ccn2)c(C)cc1CCNc1ncnc2scnc12 [Compound 13, {2-[2,5-dimethyl-4-(4-trifluoromethylpyridin-2-yloxy)-phenyl]-ethyl}-thiazolo[5,4-d]pyrimidin-7-ylamine]
- pest or weed control at 200 ppm [1]: 80 to 100%
- pest or weed control at 200 ppm [2]: 80 to 100%
- pest or weed control at 200 ppm (Pyricularia oryzae): 80 to 100%
- pest or weed control at 200 ppm (Septoria tritici): 80 to 100%

SMILES: Cc1cc(Oc2cc(C(F)(F)F)ccn2)ccc1OCCNc1ncnc2scnc12 [Compound 9, {2-[2-methyl-4-(4-trifluoromethylpyridin-2-yloxy)-phenoxy]-ethyl}-thiazolo[5,4-d]pyrimidin-7-ylamine]
- pest or weed control at 200 ppm [1]: 80 to 100%
- pest or weed control at 200 ppm [2]: 80 to 100%
- pest or weed control at 200 ppm (Pyricularia oryzae): 80 to 100%
- pest or weed control at 200 ppm (Septoria tritici): 80 to 100%

SMILES: COc1cc(CCNc2ncnc3scnc23)ccc1Oc1c(F)cnc(C(F)(F)F)c1F [Compound 32, {2-[4-(3,5-difluoro-2-trifluoromethylpyridin-4-yloxy)-3-methoxyphenyl]-ethyl}-thiazolo[5,4-d]pyrimidin-7-ylamine]
- pest or weed control at 200 ppm [1]: 80 to 100%
- pest or weed control at 200 ppm [2]: 80 to 100%
- pest or weed control at 200 ppm (Pyricularia oryzae): 80 to 100%
- pest or weed control at 25 ppm (Septoria tritici): 80 to 100%

SMILES: Cc1cc(CCNc2ncnc3scnc23)ccc1Oc1ncccc1C(F)(F)F [Compound 24, {2-[3-methyl-4-(3-trifluoromethylpyridin-2-yloxy)-phenyl]-ethyl}-thiazolo[5,4-d]pyrimidin-7-ylamine]
- pest or weed control at 200 ppm [1]: 80 to 100%
- pest or weed control at 200 ppm [2]: 80 to 100%
- pest or weed control at 200 ppm (Pyricularia oryzae): 50 to 79%
- pest or weed control at 200 ppm (Septoria tritici): 80 to 100%
